Values of other authors as cited in patent US20180235992A1, “IMMUNOTHERAPIES FOR MALIGNANT, NEURODEGENERATIVE AND DEMYELINATING DISEASES BY THE USE OF TARGETED NANOCARRIERS” (RODOS BIOTARGET GMBH, priority 2015, published 2018).

Key:
pancreatic cancer = details: given intravenously, equal dose
human melanoma cells = details: Fas Receptor/Caspase-8 pathway independent of p53
[1] = system: human vascular endothelial cells; details: in vitro
[2] = system: Fibroblast Growth Factor-2-induced angiogenic response; details: in-vivo
[3] = system: human acute myelogenous leukemia cell line HL-60
[4] = system: multiple myeloma cell lines
pancreatic cancer model = details: in vivo
pancreatic cancer cells = details: modulating miR-200 and miR-21 expression
human pancreatic cancer = details: mouse, in vivo
[5] = system: squamous cell carcinoma head and neck cell lines
[6] = system: Alzheimer's β-amyloid fibrils; details: in vitro

Compound | tumor weights and volumes (pancreatic cancer) | proliferation and apoptosis (mantle cell lymphoma) | apoptosis (human melanoma cells) | proliferation [1] | angiogenic response [2] | apoptosis [3] | expression of NF-κB, Bcl-2 and Bcl-XL [4] | antitumor activity of gemcitabine (pancreatic cancer model) | gemcitabine sensitivity (pancreatic cancer cells) | tumor growth and angiogenesis (human pancreatic cancer) | apoptosis [5] | anti-amyloidogenic effects [6]
COc1cc(/C=C/C(=O)CC(=O)/C=C/c2ccc(O)c(OC)c2)ccc1O [curcumin] | failed to cause a significant reduction | suppress proliferation, and induce apoptosis | induces apoptosis | suppresses the proliferation | inhibits | induces apoptosis | suppresses expression | potentiates the antitumor activity of gemcitabine | induces gemcitabine sensitivity | inhibits tumor growth and angiogenesis | induces apoptosis | potent anti-amyloidogenic effects
[DLys(6)]-LHRH-curcumin | caused a reduction in tumor weights and volumes |  |  |  |  |  |  |  |  |  |  | 
